Source: patent US20250333397A1 (REMIX THERAPEUTICS INC., priority 2021, published 2025)
pIC50: −log10 of the molar value. Where two headings read alike, the source gives them in different places.

How the values were obtained:
Type in all cases: cell-based, human
MYB mRNA = assay: RT-qPCR splicing assay, MYB canonical (CJ) and alternative (AJ) junction mRNA; details: Homo sapiens; for AC50: read-out: MYB AJ (AC50, increase in AJ mRNA)
Method in brief: (§1)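 Cells: A673 (DMEM/10% FBS, plated 24 h before) or K562 (IMDM/10% FBS). Dosing: 11-pt 3-fold series, 10 uM top final, ≤0.25% DMSO, 24 h, 37 °C/5% CO2. Readout: RT-qPCR of CJ and AJ junctions, housekeeper-normalized, RQ = 2^(-ΔΔCt) vs DMSO.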

SMN2 mRNA = assay: RT-qPCR splicing assay panel, SMN2 canonical junction (CJ) mRNA; details: Homo sapiens
Method in brief: as §1

HTT mRNA = assay: RT-qPCR splicing assay, HTT canonical (CJ) and alternative (AJ) junction mRNA; details: Homo sapiens; for AC50: read-out: HTT AJ (AC50, increase in AJ mRNA)
Method in brief: as §1

Target C mRNA = assay: RT-qPCR splicing assay panel, Target C canonical junction (CJ) mRNA; details: Homo sapiens
Method in brief: as §1

[1] = 24 h, Table 3A, A673 or K562 cells, 24 h treatment
[2] = 24 h, Table 3A, A673 or K562 cells, 24 h treatment, read-out: MYB CJ (IC50, decrease in CJ mRNA)
[3] = canonical junction (CJ) mRNA, RT-qPCR panel, Table 4A, read-out: MYB, decrease in CJ mRNA levels, IC50
[4] = canonical junction (CJ) mRNA, RT-qPCR panel, Table 4A, read-out: SMN2, decrease in CJ mRNA levels, IC50
[5] = 24 h, Table 3A, A673 or K562 cells, 24 h treatment, read-out: HTT CJ (IC50, decrease in CJ mRNA)
[6] = canonical junction (CJ) mRNA, RT-qPCR panel, Table 4A, read-out: HTT, decrease in CJ mRNA levels, IC50
[7] = canonical junction (CJ) mRNA, RT-qPCR panel, Table 4A, read-out: Target C, decrease in CJ mRNA levels, IC50
[8] = 24 h, Table 3B, A673 or K562 cells, 24 h treatment

Oc1cc(-c2cn[nH]c2)ccc1-c1ccc(N2CCN[C@@H](C3CC3)C2)nn1 [Compound 263]
AC50 (MYB mRNA; [1]): 100 to 1000 nM
pIC50 (MYB mRNA; [2]): 6.00 to 7.00
pIC50 (MYB mRNA; [3]): 6.00 to 7.00
pIC50 (SMN2 mRNA; [4]): > 7.00
AC50 (HTT mRNA; [1]): < 100 nM
pIC50 (HTT mRNA; [5]): > 7.00
pIC50 (HTT mRNA; [6]): > 7.00
pIC50 (Target C mRNA; [7]): 6.00 to 7.00

Oc1cc(-c2cn[nH]c2)c(F)cc1-c1ccc(N2CC[C@@H](NC3CC3)C2)nn1 [Compound 106, 2-{6-[(3R)-3-(cyclopropylamino)pyrrolidin-1-yl]pyridazin-3-yl}-4-fluoro-5-(1H-pyrazol-4-yl)phenol]
AC50 (MYB mRNA; [1]): 100 to 1000 nM
pIC50 (MYB mRNA; [2]): 6.00 to 7.00
pIC50 (MYB mRNA; [3]): 6.00 to 7.00
pIC50 (SMN2 mRNA; [4]): > 7.00
AC50 (HTT mRNA; [1]): < 100 nM
pIC50 (HTT mRNA; [5]): > 7.00
pIC50 (HTT mRNA; [6]): > 7.00
pIC50 (Target C mRNA; [7]): 6.00 to 7.00

Cn1cc2cc(-c3cnc(N4CC[C@@H](NC(C)(C)C)C4)nn3)c(O)cc2n1 [Compound 805]
AC50 (MYB mRNA; [8]): > 10000 nM
pIC50 (MYB mRNA; 24 h, Table 3B, A673 or K562 cells, 24 h treatment, read-out: MYB CJ (IC50, decrease in CJ mRNA)): 5.00 to 6.00
pIC50 (MYB mRNA; Table 4B, gene panel, read-out: MYB (IC50, decrease in CJ mRNA levels)): 5.00 to 6.00
pIC50 (SMN2 mRNA; Table 4B, gene panel, read-out: SMN2 (IC50, decrease in CJ mRNA levels)): 5.00 to 6.00
AC50 (HTT mRNA; [8]): 1000 to 10000 nM
pIC50 (HTT mRNA; 24 h, Table 3B, A673 or K562 cells, 24 h treatment, read-out: HTT CJ (IC50, decrease in CJ mRNA)): 6.00 to 7.00
pIC50 (HTT mRNA; Table 4B, gene panel, read-out: HTT (IC50, decrease in CJ mRNA levels)): 6.00 to 7.00
pIC50 (Target C mRNA; Table 4B, gene panel, read-out: Target C (IC50, decrease in CJ mRNA levels)): 5.00 to 6.00

COc1cc(-c2cc(O)c(-c3ccc(N4CC[C@@H](NC5(C)CCC5)C4)nn3)cc2F)cnn1 [Compound 286]
AC50 (MYB mRNA; [1]): 1000 to 10000 nM
pIC50 (MYB mRNA; [2]): 5.00 to 6.00
pIC50 (MYB mRNA; [3]): 5.00 to 6.00
pIC50 (SMN2 mRNA; [4]): > 7.00
AC50 (HTT mRNA; [1]): 100 to 1000 nM
pIC50 (HTT mRNA; [5]): > 7.00
pIC50 (HTT mRNA; [6]): > 7.00
pIC50 (Target C mRNA; [7]): 6.00 to 7.00

COc1nc(-c2cnc(N3CCC(NC(C)(C)C)C3)nn2)ccc1-c1cnc(C)s1 (stereo not drawn) [Compound 422]
AC50 (MYB mRNA; [1]): 100 to 1000 nM
pIC50 (MYB mRNA; [2]): 6.00 to 7.00
pIC50 (MYB mRNA; [3]): 6.00 to 7.00
pIC50 (SMN2 mRNA; [4]): > 7.00
AC50 (HTT mRNA; [1]): < 100 nM
pIC50 (HTT mRNA; [5]): > 7.00
pIC50 (HTT mRNA; [6]): > 7.00
pIC50 (Target C mRNA; [7]): 6.00 to 7.00

Oc1cc(-c2cnc(C(F)F)s2)c(F)cc1-c1ccc(N2CCC(NC3CCC3)C2)nn1 (stereo not drawn) [Compound 389]
AC50 (MYB mRNA; [1]): 1000 to 10000 nM
pIC50 (MYB mRNA; [2]): 5.00 to 6.00
pIC50 (MYB mRNA; [3]): 5.00 to 6.00
pIC50 (SMN2 mRNA; [4]): 6.00 to 7.00
AC50 (HTT mRNA; [1]): 1000 to 10000 nM
pIC50 (HTT mRNA; [5]): 6.00 to 7.00
pIC50 (HTT mRNA; [6]): 6.00 to 7.00
pIC50 (Target C mRNA; [7]): 5.00 to 6.00

Cc1ncc(-c2cc(O)c(-c3ccc(N4CC[C@H](N(C)C5CCC5)C4)nn3)cc2F)s1 [Compound 267]
AC50 (MYB mRNA; [1]): < 100 nM
pIC50 (MYB mRNA; [2]): > 7.00
pIC50 (MYB mRNA; [3]): > 7.00
pIC50 (SMN2 mRNA; [4]): > 7.00
AC50 (HTT mRNA; [1]): < 100 nM
pIC50 (HTT mRNA; [5]): > 7.00
pIC50 (HTT mRNA; [6]): > 7.00
pIC50 (Target C mRNA; [7]): > 7.00

CN(C1CCN(c2ccc(-c3cc(F)c(-c4cn[nH]c4)cc3O)nn2)C1)C(C)(C)C (stereo in doubt) [Compound 120, 2-{6-[(3R)-3-[tert-butyl(methyl)amino]pyrrolidin-1-yl]pyridazin-3-yl}-4-fluoro-5-(1H-pyrazol-4-yl)phenol]
AC50 (MYB mRNA; [1]): < 100 nM
pIC50 (MYB mRNA; [2]): > 7.00
pIC50 (MYB mRNA; [3]): > 7.00
pIC50 (SMN2 mRNA; [4]): > 7.00
AC50 (HTT mRNA; [1]): < 100 nM
pIC50 (HTT mRNA; [5]): > 7.00
pIC50 (HTT mRNA; [6]): > 7.00
pIC50 (Target C mRNA; [7]): > 7.00

Cc1ncc(-c2cc(O)c(-c3ccc(N4CC[C@@H](NCC5CC5)C4)nn3)cc2F)s1 [Compound 392]
AC50 (MYB mRNA; [1]): < 100 nM
pIC50 (MYB mRNA; [2]): > 7.00
pIC50 (MYB mRNA; [3]): > 7.00
pIC50 (SMN2 mRNA; [4]): > 7.00
AC50 (HTT mRNA; [1]): < 100 nM
pIC50 (HTT mRNA; [5]): > 7.00
pIC50 (HTT mRNA; [6]): > 7.00
pIC50 (Target C mRNA; [7]): > 7.00

COc1cc(-c2ccc(-c3ccc(N4CC(F)[C@@H](NC(C)(C)C)C4)nn3)c(O)c2)cnn1 (stereo in doubt) [Compound 217, 2-{6-[(3S,4R)-3-(tert-butylamino)-4-fluoropyrrolidin-1-yl]pyridazin-3-yl}-5-(6-methoxypyridazin-4-yl)phenol]
AC50 (MYB mRNA; [1]): 1000 to 10000 nM
pIC50 (MYB mRNA; [2]): 6.00 to 7.00
pIC50 (MYB mRNA; [3]): 6.00 to 7.00
pIC50 (SMN2 mRNA; [4]): > 7.00
AC50 (HTT mRNA; [1]): 100 to 1000 nM
pIC50 (HTT mRNA; [5]): 6.00 to 7.00
pIC50 (HTT mRNA; [6]): 6.00 to 7.00
pIC50 (Target C mRNA; [7]): 6.00 to 7.00

Cc1ncc(-c2cc(O)c(-c3ccc(N4CC[C@@H](CNC5CCC5)C4)nn3)cc2F)s1 [Compound 453]
pIC50 (MYB mRNA; [3]): 5.00 to 6.00
pIC50 (SMN2 mRNA; [4]): > 7.00
pIC50 (HTT mRNA; [6]): > 7.00
pIC50 (Target C mRNA; [7]): 5.00 to 6.00

Cc1ncc(-c2cc(O)c(-c3ccc(N4CCC(CNC(C)(C)C)C4)nn3)cc2F)s1 (stereo not drawn) [Compound 333]
AC50 (MYB mRNA; [1]): > 10000 nM
pIC50 (MYB mRNA; [2]): < 5.00
pIC50 (MYB mRNA; [3]): < 5.00
pIC50 (SMN2 mRNA; [4]): 5.00 to 6.00
AC50 (HTT mRNA; [1]): > 10000 nM
pIC50 (HTT mRNA; [5]): 5.00 to 6.00
pIC50 (HTT mRNA; [6]): 5.00 to 6.00
pIC50 (Target C mRNA; [7]): < 5.00

COc1cc(-c2ccc(-c3ccc(N4CC[C@@H](NC(C)(C)C)C4)nn3)c(O)c2)cnn1 [Compound 209, 2-{6-[(3R)-3-(tert-butylamino)pyrrolidin-1-yl]pyridazin-3-yl}-5-(6-methoxypyridazin-4-yl)phenol]
AC50 (MYB mRNA; [1]): < 100 nM
pIC50 (MYB mRNA; [2]): > 7.00
pIC50 (MYB mRNA; [3]): > 7.00
pIC50 (SMN2 mRNA; [4]): > 7.00
AC50 (HTT mRNA; [1]): < 100 nM
pIC50 (HTT mRNA; [5]): > 7.00
pIC50 (HTT mRNA; [6]): > 7.00
pIC50 (Target C mRNA; [7]): > 7.00

Cn1cc2nc(-c3ccc(-c4ccc(N5CCC(NC6CCC6)C5)nn4)c(O)c3)ccc2n1 (stereo not drawn) [Compound 319]
AC50 (MYB mRNA; [1]): 100 to 1000 nM
pIC50 (MYB mRNA; [2]): 5.00 to 6.00
pIC50 (MYB mRNA; [3]): 5.00 to 6.00
pIC50 (SMN2 mRNA; [4]): 6.00 to 7.00
AC50 (HTT mRNA; [1]): 100 to 1000 nM
pIC50 (HTT mRNA; [5]): 6.00 to 7.00
pIC50 (HTT mRNA; [6]): 6.00 to 7.00
pIC50 (Target C mRNA; [7]): 5.00 to 6.00

CC1(NC2CCN(c3ccc(-c4ccc(-c5cn[nH]c5)cc4O)nn3)C2)CC1 (stereo not drawn) [Compound 107, 2-(6-{3-[(1-methylcyclopropyl)amino]pyrrolidin-1-yl}pyridazin-3-yl)-5-(1H-pyrazol-4-yl)phenol]
AC50 (MYB mRNA; [1]): < 100 nM
pIC50 (MYB mRNA; [2]): > 7.00
pIC50 (MYB mRNA; [3]): > 7.00
pIC50 (SMN2 mRNA; [4]): > 7.00
AC50 (HTT mRNA; [1]): < 100 nM
pIC50 (HTT mRNA; [5]): > 7.00
pIC50 (HTT mRNA; [6]): > 7.00
pIC50 (Target C mRNA; [7]): > 7.00

Cc1cc(-c2ccc(-c3ccc(N4CCC(NCC5CC5)C4)nn3)c(O)c2)ncn1 (stereo not drawn) [Compound 369]
AC50 (MYB mRNA; [1]): 1000 to 10000 nM
pIC50 (MYB mRNA; [2]): 5.00 to 6.00
pIC50 (MYB mRNA; [3]): 5.00 to 6.00
pIC50 (SMN2 mRNA; [4]): 6.00 to 7.00
AC50 (HTT mRNA; [1]): 1000 to 10000 nM
pIC50 (HTT mRNA; [5]): 5.00 to 6.00
pIC50 (HTT mRNA; [6]): 5.00 to 6.00
pIC50 (Target C mRNA; [7]): 5.00 to 6.00

COc1cc(-c2ccc(-c3ccc(N4CC[C@@H](CNC5CCC5)C4)nn3)c(O)c2)cnn1 [Compound 440, 2-{6-[(3S)-3-[(cyclobutylamino)methyl]pyrrolidin-1-yl]pyridazin-3-yl}-5-(6-methoxypyridazin-4-yl)phenol]
AC50 (MYB mRNA; [1]): 100 to 1000 nM
pIC50 (MYB mRNA; [2]): 6.00 to 7.00
pIC50 (MYB mRNA; [3]): 6.00 to 7.00
pIC50 (SMN2 mRNA; [4]): > 7.00
AC50 (HTT mRNA; [1]): 100 to 1000 nM
pIC50 (HTT mRNA; [5]): > 7.00
pIC50 (HTT mRNA; [6]): > 7.00
pIC50 (Target C mRNA; [7]): 6.00 to 7.00
